What all share (assay type): cell-based
Data set [1] has as its system Peripheral blood mononuclear cells (PBMC). The conditions noted are these: human, 7 days. A digest of the protocol: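 Cytotoxicity measured after 7 days of compound exposure by MTS conversion (OD 490 nm, 4 h). The cells were PHA-activated (5 µg/mL, 2 days) donor PBMC, cultured with 20 IU/mL IL-2 at 1x10^5 cells/well. TD50 is the dose killing 50% versus untreated control, read from the dose-mortality curve.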

Data set [2] has as its system HIV-1 reference strain NL4-3. The experiment in a line: MonoCycle assay (TZM-bl cells). A digest of the protocol:
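TZM-bl cells (20,000/well) were infected with NL4-3 in the presence of five-fold serial inhibitor dilutions. After 48 h, cells were lysed and luciferase luminescence (RLU) was counted. IC50 was derived from the RLU data.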

The subject of data set [3] is HeLa cells. The experiment in a line: HeLa Proliferation assay (CellTiter Glo). Conditions: 72 hours. Summed up: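 Viability measured with CellTiter Glo after 72 h compound exposure (37 °C, 5% CO2, humidified) of HeLa cells seeded at 2000 per well in 10% FBS DMEM without phenol red and allowed 4 h recovery.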
A general note: ATP-based viability assays read luminescence as a measure of living cells.

Setting [4] is: Human immunodeficiency virus 1, NL43, TZM-bl, 48 h, read-out: Mono Cycle IC50 nM.
Where [5] appears, read: Human immunodeficiency virus 1, NL43, TZM-bl cells, NL4-3, 48 hours, read-out: Mono Cycle IC50.

Molecules are shown by their SMILES. Like-named read-outs stand apart in the source and are kept apart here.

In general, IC50 refers to the point on the concentration scale where inhibition reaches its midpoint. As to `COc1ccnc(-c2nc(O)c(O)c(C(=O)NC3CCC(C)(C)CC3)n2)c1` [Compound 77, N-(4,4-dimethylcyclohexyl)-5,6-dihydroxy-2-(4-methoxypyridin-2-yl)pyrimidine-4-carboxamide], in data set [1], the “Proliferation assay PBMC TD50” value came out at 2200 nM. Further, in data set [2] (setting [4]), the IC50 turned out to be 17300 nM. The “Proliferation assay HELA TD50” value in data set [3] was determined as 2.2578 µM.

As for `Cc1cccnc1-c1nc(O)c(O)c(C(=O)OCC2CCCCC2)n1` [Compound 10, cyclohexylmethyl 5,6-dihydroxy-2-(3-methylpyridin-2-yl)pyrimidine-4-carboxylate], in data set [1], the “Proliferation assay PBMC TD50” value was 8100 nM. In addition, the IC50 in data set [2] (setting [4]) was more than 50000 nM. Besides, the “Proliferation assay HELA TD50” value in data set [3] is more than 50 µM.

`C[C@@H](NC(=O)c1nc(-c2cc(N)ccn2)nc(O)c1O)C1CCCCC1` [Compound 48, (R)-2-(4-aminopyridin-2-yl)-N-(1-cyclohexylethyl)-5,6-dihydroxypyrimidine-4-carboxamide]: in data set [1], the “Proliferation assay PBMC TD50” value was 2600 nM. Besides, the IC50 in data set [2] (setting [4]) turned out to be 9870 nM. Also, the “Proliferation assay HELA TD50” value in data set [3] was 1.5496 µM.

In the case of `COc1cccc(-c2nc(O)c(O)c(C(=O)N[C@H](C)C3CCCCC3)n2)n1` [Compound 37, (R)-N-(1-cyclohexylethyl)-5,6-dihydroxy-2-(6-methoxypyridin-2-yl)pyrimidine-4-carboxamide], the “Proliferation assay PBMC TD50” value in data set [1] was determined as 1500 nM. Moreover, the IC50 in data set [2] (setting [4]) stood at 6910 nM. Moreover, in data set [3], the “Proliferation assay HELA TD50” value came out at 0.8976 µM.

For `O=C(NCC1CC1)c1nc(-c2ccccn2)nc(O)c1O` [Compound 3, N-(cyclopropylmethyl)-5,6-dihydroxy-2-(pyridin-2-yl)pyrimidine-4-carboxamide], the “Proliferation assay PBMC TD50” value in data set [1] stood at 6000 nM. Moreover, in data set [2] (setting [4]), the IC50 turned out to be 27400 nM. Further, the “Proliferation assay HELA TD50” value in data set [3] was more than 50 µM.

With `Cc1cccnc1-c1nc(O)c(O)c(C(=O)N[C@@H](C)C2CCCCC2)n1` [Compound 39, (S)-N-(1-cyclohexylethyl)-5,6-dihydroxy-2-(3-methylpyridin-2-yl)pyrimidine-4-carboxamide], in data set [1], the “Proliferation assay PBMC TD50” value is reported as 2300 nM. The IC50 in data set [2] (setting [4]) is more than 50000 nM. For the same compound, in data set [3], the “Proliferation assay HELA TD50” value is 0.8788 µM.

As to `C[C@H](NC(=O)c1nc(-c2ccccn2)nc(O)c1O)C1CCCCC1` [Compound 38, (S)-N-(1-cyclohexylethyl)-5,6-dihydroxy-2-(pyridin-2-yl)pyrimidine-4-carboxamide], in data set [1], the “Proliferation assay PBMC TD50” value was found to be 2450 nM. Besides, in data set [2] (setting [4]), the half-maximal inhibitory concentration (IC50) worked out at 11200 nM. The “Proliferation assay HELA TD50” value in data set [3] worked out at 0.5782 µM.

Regarding `CC(C)(CNC(=O)c1nc(-c2ccccn2)nc(O)c1O)C1CCCC1` [Compound 63, N-(2-cyclopentyl-2-methylpropyl)-5,6-dihydroxy-2-(pyridin-2-yl)pyrimidine-4-carboxamide], the “Proliferation assay PBMC TD50” value in data set [1] turned out to be 2100 nM. The IC50 in data set [2] (setting [4]) was 11800 nM. Further, the “Proliferation assay HELA TD50” value in data set [3] came out at 0.3986 µM.

With `Cc1ccnc(-c2nc(O)c(O)c(C(=O)N[C@H](C)C3CCCCC3)n2)c1` [Compound 19, (R)-N-(1-cyclohexylethyl)-5,6-dihydroxy-2-(4-methylpyridin-2-yl)pyrimidine-4-carboxamide], in data set [1], the “Proliferation assay PBMC TD50” value was found to be 3075 nM. The IC50 in data set [2] (setting [4]) came out at 15300 nM. In data set [3], the “Proliferation assay HELA TD50” value is 2.7357 µM.

For `C[C@H](NC(=O)c1nc(-c2nccc3ccccc23)nc(O)c1O)C1CCCCC1` [Compound 80, (S)-N-(1-cyclohexylethyl)-5,6-dihydroxy-2-(isoquinolin-1-yl)pyrimidine-4-carboxamide], the “Proliferation assay PBMC TD50” value in data set [1] stood at 2000 nM. The IC50 in data set [2] (setting [4]) was determined as 2850 nM. Further, the “Proliferation assay HELA TD50” value in data set [3] was 1.6112 µM.

As to `C[C@@H](NC(=O)c1nc(-c2cc(OCc3ccccc3)ccn2)nc(O)c1O)C1CCCCC1` [Compound 35, (R)-2-(4-(benzyloxy)pyridin-2-yl)-N-(1-cyclohexylethyl)-5,6-dihydroxypyrimidine-4-carboxamide], in data set [1], the “Proliferation assay PBMC TD50” value worked out at 670 nM. Also, the IC50 in data set [2] (setting [5]) is more than 50000 nM. The “Proliferation assay HELA TD50” value in data set [3] was 4.5896 µM.

On to `C[C@@H](NC(=O)c1nc(-c2ccccn2)nc(O)c1O)C1CCCCC1` [Compound 5, (R)-N-(1-cyclohexylethyl)-5,6-dihydroxy-2-(pyridin-2-yl)pyrimidine-4-carboxamide], for which, in data set [1], the “Proliferation assay PBMC TD50” value is 3000 nM. Besides, the half-inhibitory concentration (IC50) in data set [2] (setting [4]) is 2490 nM. Also, the “Proliferation assay HELA TD50” value in data set [3] worked out at 3.1844 µM.

Turning to `COc1ccnc(-c2nc(O)c(O)c(C(=O)N[C@@H](C)C3CCCCC3)n2)c1` [Compound 69, N-[(1S)-1-cyclohexylethyl]-2-(4-methoxypyridin-2-yl)-5,6-bis(oxidanyl)pyrimidine-4-carboxamide], the “Proliferation assay PBMC TD50” value in data set [1] is 7110 nM. Besides, in data set [2] (setting [4]), the IC50 was more than 50000 nM. In addition, in data set [3], the “Proliferation assay HELA TD50” value was determined as 3.8999 µM.

`C[C@@H](NC(=O)c1nc(-c2cc(C(F)(F)F)ccn2)nc(O)c1O)C1CCCCC1` [Compound 27, (R)-N-(1-cyclohexylethyl)-5,6-dihydroxy-2-(4-(trifluoromethyl)pyridin-2-yl)pyrimidine-4-carboxamide]: in data set [1], the “Proliferation assay PBMC TD50” value was 1075 nM. The IC50 in data set [2] (setting [4]) is more than 50000 nM. Further, in data set [3], the “Proliferation assay HELA TD50” value amounted to 5.9753 µM.

`C[C@@H](NC(=O)c1nc(-c2cccc(C(F)(F)F)n2)nc(O)c1O)C1CCCCC1` [Compound 44, (R)-N-(1-cyclohexylethyl)-5,6-dihydroxy-2-(6-(trifluoromethyl)pyridin-2-yl)pyrimidine-4-carboxamide]: the “Proliferation assay PBMC TD50” value in data set [1] worked out at 21550 nM. Also, the IC50 in data set [2] (setting [5]) is more than 50000 nM. The “Proliferation assay HELA TD50” value in data set [3] is more than 50 µM.

For `C[C@@H](NC(=O)c1nc(-c2ccc(C(F)(F)F)cn2)nc(O)c1O)C1CCCCC1` [Compound 36, (R)-N-(1-cyclohexylethyl)-5,6-dihydroxy-2-(5-(trifluoromethyl)pyridin-2-yl)pyrimidine-4-carboxamide], in data set [1], the “Proliferation assay PBMC TD50” value is recorded as 465 nM. In addition, in data set [2] (setting [4]), the IC50 turned out to be 45400 nM. Also, in data set [3], the “Proliferation assay HELA TD50” value came out at 4.7177 µM.

For the compound `CN1CCCC(CNC(=O)c2nc(-c3ccccn3)nc(O)c2O)C1` (stereo not drawn) [Compound 7, 5,6-dihydroxy-N-((1-methylpiperidin-3 - yl)methyl)-2-(pyridin-2-yl)pyrimidine-4-carboxamide], the “Proliferation assay PBMC TD50” value in data set [1] was more than 50000 nM. In addition, the IC50 in data set [2] (setting [4]) is more than 50000 nM. The “Proliferation assay HELA TD50” value in data set [3] was more than 50 µM.

On to `CC(NC(=O)c1nc(-c2ccccn2)nc(O)c1O)C1CCCC1` (stereo not drawn) [Compound 65, N-(1-cyclopentylethyl)-5,6-dihydroxy-2-(pyridin-2-yl)pyrimidine-4-carboxamide], for which the “Proliferation assay PBMC TD50” value in data set [1] is given as 3100 nM. Besides, the IC50 in data set [2] (setting [4]) was more than 50000 nM. Moreover, the “Proliferation assay HELA TD50” value in data set [3] came to 0.8839 µM.

`O=C(NCC1CCC1)c1nc(-c2cc3ccccc3cn2)nc(O)c1O` [Compound 47, N-(cyclobutylmethyl)-5,6-dihydroxy-2-(isoquinolin-3-yl)pyrimidine-4-carboxamide]: in data set [1], the “Proliferation assay PBMC TD50” value is listed as 4900 nM. Also, in data set [2] (setting [4]), the IC50 was found to be 8930 nM. Moreover, the “Proliferation assay HELA TD50” value in data set [3] was found to be 3.3326 µM.

These data come from patent EP3290412A1, “HIV-1 NUCLEOCAPSID INHIBITORS” (Università degli Studi di Siena, priority 2016, dated 2018).
